Reference: patent EP0407582A1, “DERIVATIVES OF TRICHLOROPHOSPHAS[…] INSECTICIDAL, VIRICIDAL, HEMATOCIDAL, FUNGICIDAL AND OVOCIDAL PREPARATIONS BASED ON THEM” (priority 1989, dated 1990)

How the values were obtained:
[1] = system: domestic flies; test: Insecticidal activity, laboratory test in gauze boxes; format: in vivo; conditions: 0.25% solution in 5% aqueous glucose solution; death rate estimated in 48 - 72 hours
Experimental: An insecticidal composition based thereon, which was a 0.25% solution of this compound in a 5% aqueous glucose solution, was prepared. The laboratory and large-scale tests of the activity of an insecticidal composition of the invention was conducted on domestic flies. for laboratory tests into the gauze-made boxes (10x10 cm, 6 boxes), there were placed 6-7-day flies of both sexes by 50 individuals per each box. Into 5 boxes there were placed Petri dishes containing the insecticidal composition of the invention. The death rate of flies was estimated-in 48 - 72 hours. A Petri dish containing a 5% aqueous solution of glucose was placed into the control box. The insecticidal activity of the composition, according to the invention, was tested in comparison with a known insecticidal composition containing 0,0-dimethyl-/1-hydroay-2,2-trichloroethyl/phosphonate.

[2] = system: domestic flies; test: Insecticidal activity, large-scale test in living and industrial premises; format: in vivo; conditions: 0.25% solution with 5% glucose solution, 2-3 dishes per 20 m2; 72 hours
Experimental: The large-scale tests of the activity of the insecticidal composition, according to the invention, was conducted on domestic flies in living and industrial premises. Petri dishes containing a 0.25% aqueous solution of the insecticide, according to the invention, added with a 5% glucose solution, were put at a rate of 2-3 dishes per 20 m2. The .activity of the composition of the invention was estimated by a direct count of dead insects in 72 hours or by using the adhesive tapes, counting the number of flies on the tape prior and after carrying out the test.

[3] = Solubility in water and organic solvents; format: physicochemical; conditions: qualitative, solvents named
[4] = system: hepatitis B virus; conditions: 1% solution in 0.85% sodium chloride; exposure 5, 30, 60 minutes
[5] = system: influenza A virus; conditions: 1% solution

Row | Compound | Death of flies, % Tests laboratory [1] [%] | Death of flies, % Tests large-scale [2] [%] | solubility [3] | inhibition of viral antigen titers, Hepatitis B virus [4] | inhibition of viral antigen titers, Influenza A virus [5]
1 | O=C(N=P(OCCCl)(OCCCl)OCCCl)c1ccccc1 [Example 1, tris-(2-chloroethoxy)phosphazobenzoyl] | 86 | 85 | soluble in water, alcohols, toluene |  | 
2 | CC(C)(OP(=NC(=O)c1ccccc1)(OC(C)(C)C(Cl)(Cl)Cl)OC(C)(C)C(Cl)(Cl)Cl)C(Cl)(Cl)Cl [Example 2, tris-(dimethyl-2,2,2-trichloroethoxy)phosphazobenzoyl] | 90 | 88 | soluble in water, alcohols, acetone, benzene, toluene |  | 
3 | O=C(N=P(OC[C@@H](NC(=O)C(Cl)Cl)[C@H](O)c1ccc([N+](=O)[O-])cc1)(OC[C@@H](NC(=O)C(Cl)Cl)[C@H](O)c1ccc([N+](=O)[O-])cc1)OC[C@@H](NC(=O)C(Cl)Cl)[C@H](O)c1ccc([N+](=O)[O-])cc1)c1ccccc1 [Example 4, tris-d/-/-threo-3-para nitrophenyl--2-dichloroacetamido-3-hydroxypropoxy/phosphazobenzoyl] |  |  |  | 100 | 100
